Earlier results as cited in patent US20130144636A1, “Method and System for Predicting Adverse Drug Reactions Using BioAssay Data” (The Board of Trustees of the Leland Stanford, Junior, …, priority 2011, published 2013).
Like-named read-outs stand apart in the source and are kept apart here.

Tests used:
[1] = molecular target: glutathione-S-transferase μ (GSTP1) (Homo sapiens, UniProt P09211)
[2] = in vitro mutagenesis tests such as the Ames test
murine bone marrow = conditions: in vivo murine bone marrow micronucleus tests
interleukin-1 (IL-1) = conditions: in vitro
[3] = FDA drug label, DRUGDEX or literature case report

glutathione-S-transferase μ (GSTP1), sequence (P09211 2-210 limits assumed): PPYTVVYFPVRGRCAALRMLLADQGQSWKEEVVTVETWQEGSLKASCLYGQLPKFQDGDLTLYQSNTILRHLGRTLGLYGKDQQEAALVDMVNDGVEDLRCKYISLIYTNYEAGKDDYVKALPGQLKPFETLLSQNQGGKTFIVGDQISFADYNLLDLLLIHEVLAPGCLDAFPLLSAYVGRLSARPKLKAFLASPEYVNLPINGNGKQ

CC(=O)Oc1ccccc1C(=O)Nc1ncc([N+](=O)[O-])s1 [nitazoxanide]
inhibition of enzymatic activity [1]: inhibit the enzymatic activity

Oc1ccc(O)cc1 [hydroquinone]
mutagenic activity in vitro [2]: but not in in vitro mutagenesis tests
mutagenic activity in vitro ([2]; listed as Hydroquinone): inactive
genotoxic carcinogenic activity (murine bone marrow): genotoxic carcinogenic activity
genotoxic carcinogenic activity (murine bone marrow; listed as Hydroquinone): carcinogenic

CC(=O)Oc1cccc2c1C(=O)c1c(OC(C)=O)cc(C(=O)O)cc1C2=O [diacerein]
inhibition of IL-1 synthesis (interleukin-1 (IL-1)): directly inhibits the synthesis

Oc1c(I)cc(Cl)c2cccnc12 [clioquinol]
known adverse drug reaction in humans [3]: associated with subacute myelo-optic neuropathy (SMON) syndrome
